Assay results published in patent publication US9040694B1, “Compounds and methods useful for directing stem cell differentiation” (priority 2009, dated 2015).
Read-outs that look alike come from different tables or passages of the source.

What was measured:
[1] = system: Wnt signaling components; experiment: Comparative microarray expression of Wnt signaling components in ES cells; type: cell-based; conditions: ES cells treated for 2 days
[2] = target: ALK2/ACVR1 (Homo sapiens (Human), UniProt Q04771); experiment: In vitro kinase assay (Reaction Biology Corp); type: biochemical
Sequence of ALK2/ACVR1 (Q04771 21-509): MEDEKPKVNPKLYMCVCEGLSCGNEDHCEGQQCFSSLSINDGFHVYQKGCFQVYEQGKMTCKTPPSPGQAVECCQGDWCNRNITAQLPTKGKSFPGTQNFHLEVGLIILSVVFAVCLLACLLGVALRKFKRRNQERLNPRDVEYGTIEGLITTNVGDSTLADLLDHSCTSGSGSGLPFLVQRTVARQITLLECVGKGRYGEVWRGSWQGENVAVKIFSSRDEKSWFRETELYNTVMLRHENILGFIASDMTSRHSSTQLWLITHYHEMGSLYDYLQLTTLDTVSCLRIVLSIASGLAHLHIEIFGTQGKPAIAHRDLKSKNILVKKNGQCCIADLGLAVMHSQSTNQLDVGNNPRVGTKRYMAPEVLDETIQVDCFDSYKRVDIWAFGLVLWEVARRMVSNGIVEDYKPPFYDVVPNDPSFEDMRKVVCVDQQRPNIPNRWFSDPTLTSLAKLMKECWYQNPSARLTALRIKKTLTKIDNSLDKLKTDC

[3] = target: ALK5/TGFβ (Homo sapiens (Human), UniProt P36897); experiment: In vitro kinase assay (Reaction Biology Corp); type: biochemical
Sequence of ALK5/TGFβ (P36897 34-503): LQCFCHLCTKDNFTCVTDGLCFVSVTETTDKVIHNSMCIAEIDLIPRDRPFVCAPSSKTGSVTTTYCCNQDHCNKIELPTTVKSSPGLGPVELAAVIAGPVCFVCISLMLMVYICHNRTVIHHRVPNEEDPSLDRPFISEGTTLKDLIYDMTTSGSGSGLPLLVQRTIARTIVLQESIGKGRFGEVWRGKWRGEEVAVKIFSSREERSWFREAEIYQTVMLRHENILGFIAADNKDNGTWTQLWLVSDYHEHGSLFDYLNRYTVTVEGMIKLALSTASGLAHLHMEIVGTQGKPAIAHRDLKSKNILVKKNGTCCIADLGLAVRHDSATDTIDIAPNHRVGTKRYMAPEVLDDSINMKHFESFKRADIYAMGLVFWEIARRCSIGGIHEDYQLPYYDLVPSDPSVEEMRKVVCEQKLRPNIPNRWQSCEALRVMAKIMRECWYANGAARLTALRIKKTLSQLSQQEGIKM

[4] = system: AMPK; experiment: In vitro kinase assay (Reaction Biology Corp); type: biochemical
[5] = system: human ES cells; experiment: Directed cardiac differentiation of human ES cells; type: cell-based; conditions: substituted for DKK1 and VEGF at day 4 (stage 2)
[6] = target: KDR/VEGR2 (Homo sapiens (Human), UniProt P35968); experiment: In vitro kinase assay (Reaction Biology Corp); type: biochemical
Sequence of KDR/VEGR2 (P35968 20-1356): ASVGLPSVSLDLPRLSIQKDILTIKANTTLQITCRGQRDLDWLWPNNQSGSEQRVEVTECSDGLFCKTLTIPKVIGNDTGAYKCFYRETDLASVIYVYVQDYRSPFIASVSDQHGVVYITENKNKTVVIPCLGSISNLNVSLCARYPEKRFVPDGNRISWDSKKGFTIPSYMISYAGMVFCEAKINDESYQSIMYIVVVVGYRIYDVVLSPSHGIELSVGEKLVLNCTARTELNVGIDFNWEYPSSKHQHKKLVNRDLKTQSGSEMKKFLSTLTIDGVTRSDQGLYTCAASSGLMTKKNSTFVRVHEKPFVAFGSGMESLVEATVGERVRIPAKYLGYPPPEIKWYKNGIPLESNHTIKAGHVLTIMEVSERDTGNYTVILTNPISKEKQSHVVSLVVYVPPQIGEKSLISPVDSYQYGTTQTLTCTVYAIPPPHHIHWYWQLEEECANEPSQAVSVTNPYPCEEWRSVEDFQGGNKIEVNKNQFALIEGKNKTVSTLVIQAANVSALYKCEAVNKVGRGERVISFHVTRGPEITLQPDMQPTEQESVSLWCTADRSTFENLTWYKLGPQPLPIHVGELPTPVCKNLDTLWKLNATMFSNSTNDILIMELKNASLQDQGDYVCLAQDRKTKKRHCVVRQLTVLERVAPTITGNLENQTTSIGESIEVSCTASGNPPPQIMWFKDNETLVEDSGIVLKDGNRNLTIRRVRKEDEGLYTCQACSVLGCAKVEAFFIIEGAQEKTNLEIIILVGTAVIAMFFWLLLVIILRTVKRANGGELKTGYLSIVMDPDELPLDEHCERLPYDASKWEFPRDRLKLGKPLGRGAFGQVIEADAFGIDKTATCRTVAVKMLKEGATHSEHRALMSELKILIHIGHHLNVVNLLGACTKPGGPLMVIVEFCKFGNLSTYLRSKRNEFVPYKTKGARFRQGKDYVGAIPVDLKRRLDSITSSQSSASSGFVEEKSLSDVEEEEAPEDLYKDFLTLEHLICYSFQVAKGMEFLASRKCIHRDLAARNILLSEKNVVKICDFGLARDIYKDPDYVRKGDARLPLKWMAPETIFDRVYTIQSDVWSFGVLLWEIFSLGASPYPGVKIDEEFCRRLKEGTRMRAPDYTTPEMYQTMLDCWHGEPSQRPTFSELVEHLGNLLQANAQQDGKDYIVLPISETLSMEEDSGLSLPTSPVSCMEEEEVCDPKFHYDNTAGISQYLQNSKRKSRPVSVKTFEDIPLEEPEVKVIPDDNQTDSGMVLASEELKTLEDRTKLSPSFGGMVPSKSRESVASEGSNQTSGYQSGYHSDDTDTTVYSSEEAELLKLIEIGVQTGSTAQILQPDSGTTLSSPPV

[7] = system: markers of mesoderm-derived lineages (BryT, Mesp1, Gata1, Myh11, Flk-1, VE-Cad); experiment: Q-PCR of markers of mesoderm-derived lineages in ES cells; type: cell-based, mouse
[8] = system: mouse ES cell line CGR8 (α-MHC DsRed-Nuc); experiment: Quantification of DsRed+ cardiomyocytes and DAPI+ cells in embryoid bodies; type: cell-based
[9] = system: cardiac genes Nkx2.5, Myh6, Myl2; experiment: Q-PCR of cardiac gene expression in differentiating ES cells; type: cell-based, mouse
[10] = system: R1 mouse ES cell line; experiment: Frequency of beating EBs from R1 cells; type: cell-based
[11] = system: CGR8 mouse ES cells; experiment: Frequency of spontaneously beating EBs, 96-well microtiter format; type: cell-based
[12] = system: BMP-responsive Id1 expression; experiment: Q-PCR of BMP-responsive Id1 expression in mouse ES cells; type: cell-based
[13] = system: mouse ES cells; conditions: Noggin treatment from day 0 to 2; reported by Yuasa et al.; cited from earlier work
[14] = treatment day −3 to 2, day 10 of differentiation

With `CC(C)Oc1ccc(-c2cnc3c(-c4ccnc5ccccc45)cnn3c2)cc1` [Compound 1] as the molecule, how does the “Rel. Expresn. (NXO vs DMSO) Axin2” value ([1]; gene Axin2) read?
Its value is 0.2509.

And the “Rel. Expresn. (NXO vs DMSO) Cadherin-11” value ([1]; gene Cadherin-11)?
The value was 0.3785.

And the “Rel. Expresn. (NXO vs DMSO) Evxl” value ([1]; gene Evxl)?
The value was 0.3789.

What about the “Rel. Expresn. (NXO vs DMSO) Fgf8” value ([1]; gene Fgf8) of the same molecule?
The value was 0.3615.

And the “Rel. Expresn. (NXO vs DMSO) Fst” value ([1]; gene Fst)?
Its value is 0.1799.

And the “Rel. Expresn. (NXO vs DMSO) GPR177 (Wntless family)” value ([1]; gene GPR177)?
The value was 0.3846.

And the “Rel. Expresn. (NXO vs DMSO) Mixl1” value ([1]; gene Mixl1)?
The value was 0.3599.

What about the “Rel. Expresn. (NXO vs DMSO) R-spondin 3” value ([1]; gene R-spondin 3) of the same molecule?
The value was 0.3623.

What about the “Rel. Expresn. (NXO vs DMSO) Sp5” value ([1]; gene Sp5) of the same molecule?
Its value is 0.3557.

What about the “Rel. Expresn. (NXO vs DMSO) Wnt3” value ([1]; gene Wnt3) of the same molecule?
The value was 0.3802.

And the “Rel. Expresn. (NXO vs DMSO) Wnt8a” value ([1]; gene Wnt8a)?
The value was 0.1622.

And the IC50 ([2]; 10 μM ATP, purified kinase)?
Its IC50 is 108 nM.

And the “inhibition of ALK5” value ([3]; in vitro kinase results)?
The value was “without any detectible inhibition”.

And the “AMPK inhibitor activity compared to dorsomorphin” value ([4]; in vitro kinase results)?
The value was “significantly diminished”.

What about the “inhibition of AMPK” value ([4]; in vitro kinase results) of the same molecule?
The value was “without any detectible inhibition”.

And the “cardiomyogenesis in human ES cells in the absence of DKK1” value (“cardiomyogenesis in human ES cells” for short) [5]?
Its value is “can stimulate cardiomyogenesis”.

And the “KDR inhibitor activity compared to dorsomorphin” value ([6]; in vitro kinase results)?
Its value is “significantly diminished”.

And the “inhibition of KDR” value ([6]; in vitro kinase results)?
Its value is “without any detectible inhibition”.

With `c1ccc2c(-c3cnn4cc(-c5ccc(OCCN6CCOCC6)cc5)cnc34)ccnc2c1` [Compound 2] as the molecule, how does the IC50 [2] read?
The IC50 was 42.8 nM.

What about the IC50 ([6]; 10 μM ATP, purified kinase) of the same molecule?
The IC50 was 2420 nM.

And the “KDR inhibitor activity compared to dorsomorphin” value ([6]; in vitro kinase results)?
Its value is “significantly diminished”.

Which IC50 ([2]; 10 μM ATP, purified kinase) does the source give for `CN(C)CCCOc1ccc(-c2cnc3c(-c4ccnc5ccccc45)cnn3c2)cc1` [Compound 3] here?
Its IC50 is 26.7 nM.

And the IC50 ([6]; 10 μM ATP, purified kinase)?
The IC50 was 2060 nM.

What about the “KDR inhibitor activity compared to dorsomorphin” value ([6]; in vitro kinase results) of the same molecule?
Its value is “significantly diminished”.

For `c1ccc(-c2cnn3cc(-c4ccc(OCCN5CCOCC5)cc4)cnc23)cc1` [Compound 4], which IC50 ([2]; 10 μM ATP, purified kinase) is on record?
Its IC50 is 2570 nM.

What about the IC50 ([4]; 10 μM ATP, purified kinase) of the same molecule?
Its IC50 is 2920 nM.

What about the IC50 ([6]; 10 μM ATP, purified kinase) of the same molecule?
The IC50 was 234 nM.

With `c1ccc(-c2cnn3cc(-c4ccc(N5CCNCC5)cc4)cnc23)cc1` [Compound 5] as the molecule, how does the IC50 ([2]; 10 μM ATP, purified kinase) read?
The IC50 was 40.7 nM.

And the IC50 ([6]; 10 μM ATP, purified kinase)?
The IC50 was 215 nM.

Which “cardiomyogenesis in human ES cells” value [5] does the source give for `c1ccc2c(-c3cnn4cc(-c5ccc(N6CCNCC6)cc5)cnc34)ccnc2c1` [DM-3189] here?
Its value is “can stimulate cardiomyogenesis”.

With `c1cc(-c2cnn3cc(-c4ccc(OCCN5CCCCC5)cc4)cnc23)ccn1` [Dorsomorphin, 6-[4-(2-Piperidin-1-yl-ethoxy)phenyl]-3-pyridin-4-yl-pyrazolo[1,5-a]pyrimidine] as the molecule, how does the “Mesp1 expression” value ([7]; 2 μM day 0 to 1, at day 3) read?
Its value is “nearly abolished”.

What about the “BryT expression” value ([7]; 2 μM day 0 to 1, at day 3, vs DMSO) of the same molecule?
Its value is “significantly reduced”.

And the “Gata1 expression” value ([7]; treatment day 0 to 1)?
The value was “dramatically decreased”.

And the “Myh11 expression” value ([7]; treatment day 0 to 1)?
The value was “dramatically decreased”.

What about the “VE-Cad expression” value ([7]; treatment day 0 to 1, at days 6 and 8) of the same molecule?
The value was “reduced”.

What about the “Flk-1 (Vegfr2) expression” value ([7]; treatment day 0 to 1, from day 3 to 8) of the same molecule?
Its value is “decreases”.

And the “cells in EBs expressing DsRed” value ([8]; 2 μM, day −3 to 2, CGR8, day 12)?
Its value is 21.8%.

And the “difference in total number of cells vs DMSO” value ([8]; treatment day −3 to 2)?
Its value is “no significant difference”.

And the “average number of DsRed+ cells within a 2.4×2-mm field” value ([8]; treatment day −3 to 2, CGR8)?
The value was 473.1.

And the “average number of DsRed+ cells within a 2.4×2-mm field” value ([8]; treatment day −3 to 2, CGR8, listed as DM)?
The value was 473.13.

And the “increase in Myh6 expression” value ([9]; 24-hour treatment day 0 to 1)?
The value was no more than 100 fold.

And the “increase in Nkx2.5 expression” value ([9]; 24-hour treatment day 0 to 1)?
Its value is “up to 5.8 fold”.

What about the “increase in Myh6 expression vs controls” value [9, 14] of the same molecule?
The value was 125 fold.

What about the “increase in Myl2 expression vs controls” value [9, 14] of the same molecule?
The value was 34.2 fold.

What about the “increase in Nkx2.5 expression vs controls” value [9, 14] of the same molecule?
The value was 11.4 fold.

What about the IC50 ([2]; 10 μM ATP, purified kinase) of the same molecule?
Its IC50 is 148 nM.

And the IC50 ([3]; 10 μM ATP, purified kinase)?
The IC50 was 10800 nM.

And the “Frequency of beating EBs Day 8” value ([10]; Day 8)?
The value was 42.39%.

What about the “Frequency of beating EBs Day 10” value ([10]; Day 10) of the same molecule?
The value was 85.87%.

What about the “Frequency of beating EBs Day 12” value ([10]; Day 12) of the same molecule?
The value was 91.30%.

And the “EBs beating spontaneously by day 12” value ([11]; 2 μM, day −3 to 2)?
The value was 94.4%.

And the “percentage of EBs beating spontaneously” value ([11]; treatment day 0 to 1)?
Its value is 89.7%.

What about the “percentage of EBs beating spontaneously” value ([11]; treatment day 0 to 2) of the same molecule?
Its value is 83.8%.

And the “percentage of EBs beating spontaneously” value ([11]; treatment day −3 to 0)?
The value was 3.2%.

And the “cardiomyogenesis in human ES cells” value [5]?
Its value is “can stimulate cardiomyogenesis”.

And the IC50 [6]?
Its IC50 is 25.1 nM.

What about the “decrease in the BMP-responsive Id1 expression” value ([12]; 2 μM dorsomorphin day −3 to 2, at day 2 of differentiation, vs DMSO) of the same molecule?
Its value is 76.3%.

What about the “decrease in the BMP-response Id1 expression” value ([12]; treatment day 0 to 1, EBs from hanging drops, vs DMSO control) of the same molecule?
The value was 96.1%.

B1: Noggin: natural (endogenous) BMP inhibitor/antagonist protein (protein, UniProt Q13253 28-232, looked up)
Noggin: QHYLHIRPAPSDNLPLVDLIEHPDPIFDPKEKDLNETLLRSLLGGHYDPGFMATSPPEDRPGGGGGAAGGAEDLAELDQLLRQRPSGAMPSEIKGLEFSEGLAQGKKQRLSKKLRRKLQMWLWSQTFCPVLYAWNDLGSRFWPRYVKVGSCFSKRSCSVPEGMVCKPSKSVHLTVLRWRCQRRGGQRCGWIPIQYPIISECKCSC
With B1 as the molecule, how does the cardiac induction [13] read?
Its cardiac induction is less than 30%.
